Source: patent EP3995135B1, “PROLONGED RELEASE DOSAGE FORM OF […]-(+)- TARTARIC ACID SALT” (Grünenthal GmbH, priority 2020, dated 2022)
Counter-ions that a name gives are not always drawn.

How the values were obtained:
[1] = Thermodynamic solubility (saturation solubility, HPLC quantification as free base); type: physicochemical; conditions: for Thermodynamische Löslichkeit, Assay ausgedrückt als Base: 24 h at 25°C; for pH Ende: pH of the solution at the end (24 h, 25°C); for pH Start: pH of the solution at the start
Method: Die thermodynamische Löslichkeit von Tapentadolhydrochlorid und des Salzes von Tapentadol mit L-(+)-Weinsäure wurde als Sättigungslöslichkeit in verschiedenen Medien bei verschiedenen pH-Werten bestimmt. Die Lösungen wurden 24 Stunden bei 25°C gerührt und die pH-Werte der Lösungen zu Beginn und am Ende der Experimente wurden gemessen. Die gelöste Menge an Tapentadol wurde durch HPLC quantifiziert (freie Base von Tapentadol). Die experimentellen Ergebnisse sind in der Tabelle unten zusammengestellt: […]

[2] = Intrinsic dissolution (dissolution rate) of compressed salt samples in a Wood apparatus; type: physicochemical; conditions: 37°C, 900 ml, 50 U/min
Method: 100 mg Tapentadol, entweder in Form des Hydrochloridsalzes oder des Salzes mit L-(+)-Weinsäure wurden mit einer Presskraft von 200 kg (gravitativ) bei einer Oberfläche von 0,5 cm^2 1 Minute verpresst. Die so erhaltenen verpressten Proben wurden in einem Wood-Apparat bei 37°C in 900 ml Auflösungsmedium bei verschiedenen pH-Werten und einer Paddeldrehgeschwindigkeit von 50 U/min auf ihre Auflösungsrate untersucht.

SMILES	Thermodynamische Löslichkeit, Assay ausgedrückt als Base ([1]; medium 0,1 M HCl)	Thermodynamische Löslichkeit, Assay ausgedrückt als Base ([1]; medium Acetat pH 4,5)	Thermodynamische Löslichkeit, Assay ausgedrückt als Base ([1]; medium SIF sp pH 6,8)	Thermodynamische Löslichkeit, Assay ausgedrückt als Base ([1]; medium Wasser)	pH Ende ([1]; medium 0,1 M HCl)	pH Ende ([1]; medium Acetat pH 4,5)	pH Ende ([1]; medium SIF sp pH 6,8)	pH Ende ([1]; medium Wasser)	pH Start ([1]; medium 0,1 M HCl)	pH Start ([1]; medium Acetat pH 4,5)	pH Start ([1]; medium SIF sp pH 6,8)	intrinsische Auflösung (Auflösungsrate) ([2]; pH 1,0, 0 min) [%]	intrinsische Auflösung (Auflösungsrate) ([2]; pH 1,0, 1 min) [%]	intrinsische Auflösung (Auflösungsrate) ([2]; pH 1,0, 3 min) [%]	intrinsische Auflösung (Auflösungsrate) ([2]; pH 1,0, 5 min) [%]	intrinsische Auflösung (Auflösungsrate) ([2]; pH 4,5, 0 min) [%]	intrinsische Auflösung (Auflösungsrate) ([2]; pH 4,5, 1 min) [%]	intrinsische Auflösung (Auflösungsrate) ([2]; pH 4,5, 3 min) [%]	intrinsische Auflösung (Auflösungsrate) ([2]; pH 4,5, 5 min) [%]	intrinsische Auflösung (Auflösungsrate) ([2]; pH 6,8, 0 min) [%]	further results
CC[C@@H](c1cccc(O)c1)[C@@H](C)CN(C)C [Salz von Tapentadol mit L-(+)-Weinsäure, (-)-(1R,2R)-3-(3-Dimethylamino-1-ethyl-2-methylpropyl)phenol]	26,7 g/100 ml	26,6 g/100 ml	12,6 g/100 ml	26,4 g/100 ml	3,39	3,53	3,55	3,38	1,15	4,51	6,83	0	19	51	77	0	20	51	77	0	Thermodynamische Löslichkeit, Assay ausgedrückt als Base ([1]; medium Phosphat pH 7,4): 12,9 g/100 ml; pH Ende ([1]; medium Phosphat pH 7,4): 3,56; pH Start ([1]; medium Phosphat pH 7,4): 7,53; pH Start ([1]; medium Wasser): 6,19; intrinsische Auflösung (Auflösungsrate) ([2]; pH 6,8, 1 min): 19%; intrinsische Auflösung (Auflösungsrate) ([2]; pH 6,8, 3 min): 44%; intrinsische Auflösung (Auflösungsrate) ([2]; pH 6,8, 5 min): 67%; intrinsische Auflösung (Auflösungsrate) ([2]; pH 7,4, 0 min): 0%; intrinsische Auflösung (Auflösungsrate) ([2]; pH 7,4, 1 min): 18%; intrinsische Auflösung (Auflösungsrate) ([2]; pH 7,4, 3 min): 44%; intrinsische Auflösung (Auflösungsrate) ([2]; pH 7,4, 5 min): 65%
CC[C@@H](c1cccc(O)c1)[C@@H](C)CN(C)C [Tapentadolhydrochlorid, (-)-(1R,2R)-3-(3-Dimethylamino-1-ethyl-2-methylpropyl)phenol, reference compound]	31,2 g/100 ml	32,7 g/100 ml	32,4 g/100 ml	33,0 g/100 ml	0,83	4,29	6,23	4,63	1,11	4,54	6,82	0	52	95	99	0	60	91	95	0	Thermodynamische Löslichkeit, Assay ausgedrückt als Base ([1]; medium Citrat pH 7.4): 31,9 g/100 ml; pH Ende ([1]; medium Citrat pH 7.4): 6,33; pH Start ([1]; medium Citrat pH 7.4): 7,39; intrinsische Auflösung (Auflösungsrate) ([2]; pH 6,8, 1 min): 38%; intrinsische Auflösung (Auflösungsrate) ([2]; pH 6,8, 3 min): 79%; intrinsische Auflösung (Auflösungsrate) ([2]; pH 6,8, 5 min): 92%; intrinsische Auflösung (Auflösungsrate) ([2]; pH 7,4, 0 min): 0%; intrinsische Auflösung (Auflösungsrate) ([2]; pH 7,4, 1 min): 27%; intrinsische Auflösung (Auflösungsrate) ([2]; pH 7,4, 3 min): 65%; intrinsische Auflösung (Auflösungsrate) ([2]; pH 7,4, 5 min): 80%
